Columns and labels:
Type in all cases: cell-based
MDA−MB−231 cells [1] = assay: Western blot protein expression; conditions: MDA−MB−231, IC50, 72 h
Method in brief: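 Cells were lysed in RIPA buffer with orthovanadate, and 20 µg protein was run on SDS-PAGE, transferred to PVDF and probed for proliferation, apoptosis, microtubule and autophagy markers. ECL band intensities were normalised to GAPDH and then to untreated control. Three independent experiments were run per marker.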

HT29 cells = assay: Cellular localisation of Pt (fractionation, ICP-MS); conditions: HT29, 3 µM, 24 h
Protocol: (§1) MDA−MB−231 and HT29 cells were seeded at a final concentration of 10^6 cells/well in 6-well plates and incubated overnight. Cells were then treated with 3 µM of either Pt^II or Pt^IV complexes for 24 h. The media was next removed, and cells were washed three times with ice-cold PBS. Then the cells were trypsinised. The isolation of individual fractions was carried out using the Fraction-PREP Cell Fractionation kit (ab288085, Abcam, Cambridge, MA, USA). The cell pellet was resuspended in ice-cold PBS and moved to Eppendorf tubes to spin for 5 min at 700× g and supernatant was removed. The pellet was then resuspended in 400 µL of cytosol extraction buffer mix and incubated for 20 min on ice. Next, samples were centrifuged at 700× g for 10 min and the supernatant was collected as the cytosolic fraction. The pellet was then resuspended in 400 µL of ice-cold membrane A extraction buffer mix and vortexed for 10 s, after which membrane B extraction buffer mix was added and incubated on ice for 1 min. The sample was then vortexed and centrifuged for 5 min at 1000× g. […] The pellet was then resuspended in 200 µL of ice-cold nuclear extraction buffer, vortexed for 20 s and then incubated on ice for 40 min with constant vortexing every 10 min. The samples were then centrifuged for 10 min at maximum speed. […] Platinum cell localisation was then measured via ICP-MS, as described in Section 2.5.

MDA−MB−231 cells [2] = assay: as above; conditions: MDA−MB−231, 3 µM, 24 h
Protocol: as §1

## N.N.[Cl][Pt][Cl] [Cisplatin, cisplatin]
MDA−MB−231 cells [1]; Figure 12D
  LC3B protein expression level increase: up to 3 folds
MDA−MB−231 cells [1]; representative blot Figure S24A
  β-actin/GAPDH normalized to control (1): 0.5805
MDA−MB−231 cells [1]; representative blot Figure S24B
  β-tubulin/GAPDH normalized to control (1): 1.195
MDA−MB−231 cells [1]; representative blot Figure S24C
  α-tubulin/GAPDH normalized to control (1): 0.9486
MDA−MB−231 cells [1]; representative blot Figure S25A
  p-AKT/AKT/GAPDH normalized to control (1): 0.6181
MDA−MB−231 cells [1]; representative blot Figure S25B
  p-ERK/ERK/GAPDH normalized to control (1): 0.2123
MDA−MB−231 cells [1]; representative blot Figure S25C
  p53/GAPDH normalized to control (1): 1.585
MDA−MB−231 cells [1]; representative blot Figure S25D
  p21/GAPDH normalized to control (1): 1.351
MDA−MB−231 cells [1]; representative blot Figure S26A
  Bax/GAPDH normalized to control (1): 1.836
MDA−MB−231 cells [1]; representative blot Figure S26B
  Bcl2/GAPDH normalized to control (1): 0.7529
MDA−MB−231 cells [1]; representative blot Figure S26C
  Cytochrome C/GAPDH normalized to control (1): 2.371
MDA−MB−231 cells [1]; representative blot Figure S26D
  Procaspase 8/GAPDH normalized to control (1): 0.5682
MDA−MB−231 cells [1]; representative blot Figure S26E
  Cleaved BID/GAPDH normalized to control (1): 11.07
MDA−MB−231 cells [1]; representative blot Figure S26F
  Procaspase 9/GAPDH normalized to control (1): 1.122
MDA−MB−231 cells [1]; representative blot Figure S26G
  Procaspase 3/GAPDH normalized to control (1): 0.8253
MDA−MB−231 cells [1]; representative blot Figure S26H
  PARP-1/GAPDH normalized to control (1): 0.7867
MDA−MB−231 cells [1]; representative blot Figure S27A
  Beclin1/GAPDH normalized to control (1): 0.9211
MDA−MB−231 cells [1]; representative blot Figure S27B
  ATG5/GAPDH normalized to control (1): 0.8216
MDA−MB−231 cells [1]; representative blot Figure S27C
  ATG16L1/GAPDH normalized to control (1): 0.9512
MDA−MB−231 cells [1]; representative blot Figure S27D
  ATG9A/GAPDH normalized to control (1): 0.6551
MDA−MB−231 cells [1]; representative blot Figure S27E
  ATG4B/GAPDH normalized to control (1): 1.551
MDA−MB−231 cells [1]; representative blot Figure S27F
  LC3B/GAPDH normalized to control (1): 1.368
HT29 cells
  subcellular fraction with main platinum accumulation: membrane/particulate fraction
MDA−MB−231 cells [2]
  subcellular fraction with main platinum accumulation: membrane/particulate fraction
